Assay results reported in patent publication EP4667628A1, “SYNTHETIC LETHALITY TO TREAT AUTOSOMAL DOMINANT POLYCYSTIC KIDNEY DISEASE (ADPKD)” (Albert-Ludwigs-Universität Freiburg Körperschaft des …, priority 2024, dated 2025).
pIC50: −log10 of the molar value. Read-outs that look alike come from different tables or passages of the source.

Assays:
[1] = tested on: monoclonal PKD1 KO mIMCD-3 cell line (clone #1); assay: Luminescence-based ATP-dependent cell viability assay (CellTiter-Glo 2.0), dose-response, PKD1 knockout clone #1; set-up: species or system mouse; settings: for pIC50 / IC50: Mus musculus; for pIC50: mIMCD3, mIMCD-3 PKD1 knockout clone 1, 72 hours compound incubation, IC50 = concentration that kills 50% of the cells, read-out: IC50 PKD1-/- (clone 1); for IC50: mIMCD3, 72 h, read-out: IC50 PKD1-/- (clone 1) (µM); for effect sizes: further MEK-inhibitors tested, PKD1-deficient cells compared to wildtype cells
Description: (§1) Subculturing of cells was performed twice a week in a 1:10 ratio. Cells were maintained in a humidified incubator at 37°C and 5% CO2. […] The term "wild-type" is used for mIMCD-3 cells that were not edited by CRISPR-Cas9. The original cell line obtained from ATCC was generated from inner medullary collecting ducts of a SV-40 transgenic mouse.^13
(§2) Prior to genome editing, a monoclonal starting cell line was generated by a single cell sorting step.
(§3) After 72 hours cell density was checked with an inverted microscope (Zeiss Axiovert 40CFL). Cells were washed with 10 ml phosphate buffered saline (PBS). […] 10 ml DMEM:F12 with 10% FBS and 1% penicillin/streptomycin were added, cell detachment was facilitated by pipetting up and down multiple times. […] Cell density was diluted to 400,000 cells/ml for each genotype. […] Basins of 1536 well plates were filled with 25 µl (vertical basins) or 40 µl (horizontal basins) H2O in order to prevent evaporation induced edge effects. Confluency was checked after 24 hours with an Evos M5000 imaging system (Invitrogen).
(§4) For the secondary screen and validation experiments, source plates were generated with compounds in 1:2 dilutions allowing for the generation of dose-response-curves. 30 nl of compounds per well were transferred in secondary screen and validation experiments. […] The volume of transferred DMSO was adjusted according to the transferred compound volume. […] After compound transfer, plates were centrifuged (Multifuge 3 s-r, Heraeus) for 10 seconds (1,000 rpm). […] Plates were stored in incubators at 37°C and 5% CO2 for 72 hours. A maximum of two plates was stacked in the incubator. Source plates were sealed with an Agilent Technologies Plateloc heat sealer. Prior to compound transfer source plates were centrifuged (4,200 rpm, 1 min). Sealing was removed with a Brooks XPeel device.
(§5) After 72 hours of compound incubation, plates were allowed to adapt to room temperature for 20 minutes. […] The luminescence signal was allowed to stabilize for 20 min. Luminescence was scanned with a BMG Labtech Pherastar FSX luminescence reader with a measurement interval time of 0.16 s per well. A 1536-well plate adapted aperture was used to minimize cross-talk. Data analysis was performed with GraphPad Prism (version 9). Dose- and genotype-dependent differences in viability were checked for statistical significance by performing a two-way ANOVA (α = 0.05). Difference in protein abundance analyzed by western blot were checked for statistical significance by performing a student's t-test (α = 0.05).

[2] = tested on: second independent PKD1 KO clone (#2); assay: Luminescence-based ATP-dependent cell viability assay (CellTiter-Glo 2.0), dose-response, PKD1 knockout clone #2; settings: Mus musculus; for pIC50: mIMCD3, mIMCD-3 PKD1 knockout clone 2, 72 hours compound incubation, IC50 = concentration that kills 50% of the cells, read-out: IC50 PKD1-/- (clone 2); for IC50: mIMCD3, 72 h, read-out: IC50 PKD1-/- (clone 2) (µM)
Description: as §1, §2, §3, §4, §5

[3] = tested on: isogenic wildtype mIMCD-3 cells; assay: Luminescence-based ATP-dependent cell viability assay (CellTiter-Glo 2.0), dose-response, isogenic wildtype counter screen; settings: Mus musculus; for pIC50: mIMCD3, isogenic wildtype mIMCD-3 control cells, 72 hours compound incubation, read-out: IC50 wildtype; for IC50: mIMCD3, 72 h, read-out: IC50 wildtype (µM)
Description: as §1, §2, §3, §4, §5

SMILES	pIC50 [1]	pIC50 [2]	pIC50 [3]	IC50 [1] [µM]	IC50 [2] [µM]	IC50 [3] [µM]	effect sizes [1]
N#CC(C#N)=NNc1cccc(Cl)c1 [Number 4]	5.45	5.55	5.37	–	–	–	–
O=C1C2=C(C(=O)c3ccccc31)[C@H]1Oc3ccccc3[C@H]1CO2 [Number 15, Pterocarpanquinone ((2S,10S)-3,12-dioxapentacyclo[11.8.0.02,10.04,9.015,20]henicosa-1(13),4,6,8,15,17,19-heptaene-14,21-dione)]	–	–	–	3.54	2.8	4.45	–
Cc1c(Cl)cccc1Nc1ncnc2cc(Cl)ccc12 [Number 3, 7-Chloro-N-(3-chloro-2-methylphenyl)-4-quinazolinamine]	< 4.52	4.85	< 4.52	–	–	–	–
Cn1c(=O)c(F)c(Nc2ccc(I)cc2F)c2c(=O)n(C[C@@H](O)CO)cnc21 [Number 25]	4.77	5.02	4.38	–	–	–	–
O=C(Nc1ccccc1C(=O)NCc1ccccn1)c1ccc([N+](=O)[O-])o1 [Number 8, 5-Nitro-N-{2-[(2-pyridinylmethyl)carbamoyl]phenyl}-2-furamide]	4.71	4.71	4.61	–	–	–	–
COc1cc2ncnc(Nc3cccc(Cl)c3C)c2cc1OC [Number 7, N-(3-Chloro-2-methylphenyl)-6,7-dimethoxy-4-quinazolinamine]	4.77	4.92	< 4.52	–	–	–	–
c1ccc(CNc2cc(-c3ccccc3)nc(-c3ccccn3)n2)cc1 [Number 10, N-benzyl-6-phenyl-2-pyridin-2-ylpyrimidin-4-amine]	5.49	5.22	5.11	–	–	–	–
O=C(NOCC1CC1)c1ccc(F)c(F)c1Nc1ccc(I)cc1Cl [Number 23]	5.21	5.10	4.99	–	–	–	–
CN(C)S(=O)(=O)c1cc(NC(=O)c2ccc([N+](=O)[O-])o2)ccc1Cl [Number 12, N-[4-Chloro-3-(dimethylsulfamoyl)phenyl]-5-nitro-2-furamide]	5.15	5.07	4.95	–	–	–	–
O=C(NOC[C@H](O)CO)c1ccc(F)c(F)c1Nc1ccc(I)cc1F [Number 24, Mirdametinib, reference compound]	–	–	–	–	–	–	strong effect sizes
CC(=O)N(C)c1ccc(Nc2nc(NC3CCC3)c3[nH]cnc3n2)cc1 [Number 18, N-(4-{[6-(Cyclobutylamino)-7H-purin-2-yl]amino}phenyl)-N-methylacetamide]	5.51	5.60	5.23	–	–	–	–
Cn1c(/C=C/c2ccc([N+](=O)[O-])o2)nc2ccccc2c1=O [Number 5, 3-Methyl-2-[(E)-2-(5-nitro-2-furyl)vinyl]-4(3H)-quinazolinone]	5.62	5.58	5.40	–	–	–	–
Cn1c(=O)c(F)c(Nc2ccc(I)cc2F)c2c(=O)n(C[C@@H](O)CO)cnc21 [Number 25, Tak-733, reference compound]	–	–	–	–	–	–	strong effect sizes
CCOC(=O)CCNc1cc(N2CCc3ccccc3CC2)nc(-c2ccccn2)n1 [Number 17]	5.47	5.22	5.11	–	–	–	–
O=c1c2ccccc2nc(/C=C/c2ccc([N+](=O)[O-])o2)n1-c1ccc(O)cc1 [Number 6, 3-(4-Hydroxyphenyl)-2-[(E)-2-(5-nitro-2-furyl)vinyl]-4(3H)-quinazolinone]	5.50	5.53	5.35	–	–	–	–
COc1ccc(Cc2c(N)nc(-c3ccccn3)nc2N)cc1 [Number 19, 5-(4-Methoxybenzyl)-2-(2-pyridinyl)-4,6-pyrimidinediamine]	4.70	4.60	4.44	–	–	–	–
C=CCN1C(=O)CS/C1=N\NC(=S)NC [Number 1, 1-methyl-3-[(Z)-(4-oxo-3-prop-2-enyl-1,3-thiazolidin-2-ylidene)amino]thiourea]	4.94	5.00	< 4.52	–	–	–	–
O=C(NOC[C@H](O)CO)c1ccc(F)c(F)c1Nc1ccc(I)cc1F [Number 24, Mirdametinib]	–	–	–	80	21.8	–	–
S=C(SSC(=S)N1CCOCC1)N1CCOCC1 [Number 21, Dimorpholinethiuram disulfide]	5.28	5.40	4.70	–	–	–	–
COc1cc(F)c(F)c(Nc2ccc(I)cc2F)c1NS(=O)(=O)C1(C[C@H](O)CO)CC1 [Number 14, Refametinib]	< 4.52	< 4.52	–	–	–	> 30	–
N#CC(C#N)=NNc1ccc(OC(F)(F)F)cc1 [Number 22]	5.54	5.62	5.39	–	–	–	–
CC(C)c1cc(N2CCCCC2)nc(-c2ccccn2)n1 [Number 13, 4-Piperidin-1-yl-6-propan-2-yl-2-pyridin-2-ylpyrimidine]	5.17	4.73	4.54	–	–	–	–
Fc1ccccc1-c1cc(NCCc2c[nH]c3ccccc23)nc(-c2ccccn2)n1 [Number 11, 6-(2-Fluorophenyl)-N-[2-(1H-indol-3-yl)ethyl]-2-(2-pyridinyl)-4-pyrimidinamine]	5.52	5.19	5.01	–	–	–	–
COc1cc(NC(=O)c2ccc([N+](=O)[O-])o2)cc(C(F)(F)F)c1 [Number 9, N-[3-Methoxy-5-(trifluoromethyl)phenyl]-5-nitro-2-furamide]	4.82	4.81	–	–	–	18.4	–
Cc1nc(Nc2ncc(C(=O)Nc3c(C)cccc3Cl)s2)cc(N2CCN(CCO)CC2)n1 [Number 20]	5.63	5.85	5.43	–	–	–	–
